Measured values reported in ChEMBL document CHEMBL5316282, “Small-Molecule Cyanamide Pan-TEAD·YAP1 Covalent Antagonists” (J Med Chem, 2023).
pIC50: −log10 of the molar value. Activity calls are given as the source filed them. The calls are words filed in the database; no cut-off is given here.

How the values were obtained:
[1] = biological target: T1, Transcriptional enhancer factor TEF-1 (Homo sapiens, UniProt P28347); experiment: Displacement of FAM- labeled YAP1 peptide (60 to 99 residues) from human TEAD1 (209 to 426 residues) expressed in Escherichia coli BL21 (DE3) cells incubated for 24 hrs by fluorescence polarization-based competitive binding assay; details: read-out: IC50
T1 sequence (P28347 whole entry, the tested form may be a part): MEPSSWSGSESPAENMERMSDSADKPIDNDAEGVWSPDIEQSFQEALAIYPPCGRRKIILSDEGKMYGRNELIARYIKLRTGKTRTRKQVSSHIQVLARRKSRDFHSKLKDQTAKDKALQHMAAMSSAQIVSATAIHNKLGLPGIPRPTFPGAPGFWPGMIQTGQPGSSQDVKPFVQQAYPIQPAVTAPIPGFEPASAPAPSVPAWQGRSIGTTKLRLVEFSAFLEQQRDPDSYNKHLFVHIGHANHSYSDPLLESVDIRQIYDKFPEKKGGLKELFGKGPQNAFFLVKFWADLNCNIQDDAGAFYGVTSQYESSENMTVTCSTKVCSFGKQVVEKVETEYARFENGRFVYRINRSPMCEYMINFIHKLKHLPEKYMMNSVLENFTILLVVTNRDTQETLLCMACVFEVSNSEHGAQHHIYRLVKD

[2] = biological target: T2, Transcriptional enhancer factor TEF-4 (Homo sapiens, UniProt Q15562); experiment: Displacement of FAM- labeled YAP1 peptide (60 to 99 residues) from human TEAD2 (217 to 447 residues) expressed in Escherichia coli BL21 (DE3) cells incubated for 24 hrs by fluorescence polarization-based competitive binding assay
T2 sequence (Q15562 whole entry, the tested form may be a part): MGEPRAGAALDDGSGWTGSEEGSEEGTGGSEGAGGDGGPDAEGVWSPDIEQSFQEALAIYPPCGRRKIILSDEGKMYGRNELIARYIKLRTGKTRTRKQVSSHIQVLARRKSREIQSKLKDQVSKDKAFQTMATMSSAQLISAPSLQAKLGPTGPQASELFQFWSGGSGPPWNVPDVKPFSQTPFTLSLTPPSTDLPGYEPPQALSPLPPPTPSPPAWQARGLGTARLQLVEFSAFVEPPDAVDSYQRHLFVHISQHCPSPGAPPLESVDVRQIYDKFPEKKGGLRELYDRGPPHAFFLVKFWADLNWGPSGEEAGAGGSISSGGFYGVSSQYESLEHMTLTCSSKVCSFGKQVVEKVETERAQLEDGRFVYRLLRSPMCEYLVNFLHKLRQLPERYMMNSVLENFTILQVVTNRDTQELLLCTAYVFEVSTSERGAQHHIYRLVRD

[3] = biological target: T3, Transcriptional enhancer factor TEF-5 (Homo sapiens, UniProt Q99594); experiment: Displacement of FAM- labeled YAP1 peptide (60 to 99 residues) from human TEAD3 (210 to 427 residues) expressed in Escherichia coli BL21 (DE3) cells incubated for 24 hrs by fluorescence polarization-based competitive binding assay
T3 sequence (Q99594 whole entry, the tested form may be a part): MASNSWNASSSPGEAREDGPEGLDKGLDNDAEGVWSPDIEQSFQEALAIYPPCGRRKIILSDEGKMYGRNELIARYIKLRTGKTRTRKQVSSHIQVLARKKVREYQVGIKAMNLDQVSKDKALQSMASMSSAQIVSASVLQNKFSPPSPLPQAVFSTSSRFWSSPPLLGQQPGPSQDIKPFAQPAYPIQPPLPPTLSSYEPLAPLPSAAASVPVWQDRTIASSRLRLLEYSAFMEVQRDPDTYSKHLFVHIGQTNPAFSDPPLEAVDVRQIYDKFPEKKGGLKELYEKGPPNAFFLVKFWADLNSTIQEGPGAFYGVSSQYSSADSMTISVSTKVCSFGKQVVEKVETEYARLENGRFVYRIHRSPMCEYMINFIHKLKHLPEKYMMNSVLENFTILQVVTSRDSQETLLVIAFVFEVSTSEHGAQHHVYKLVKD

[4] = biological target: T4, Transcriptional enhancer factor TEF-3 (Homo sapiens, UniProt Q15561); experiment: Displacement of FAM- labeled YAP1 peptide (60 to 99 residues) from human TEAD4 (217 to 434 residues) expressed in Escherichia coli BL21 (DE3) cells incubated for 24 hrs by fluorescence polarization-based competitive binding assay; details: read-out: IC50
T4 sequence (Q15561 whole entry, the tested form may be a part): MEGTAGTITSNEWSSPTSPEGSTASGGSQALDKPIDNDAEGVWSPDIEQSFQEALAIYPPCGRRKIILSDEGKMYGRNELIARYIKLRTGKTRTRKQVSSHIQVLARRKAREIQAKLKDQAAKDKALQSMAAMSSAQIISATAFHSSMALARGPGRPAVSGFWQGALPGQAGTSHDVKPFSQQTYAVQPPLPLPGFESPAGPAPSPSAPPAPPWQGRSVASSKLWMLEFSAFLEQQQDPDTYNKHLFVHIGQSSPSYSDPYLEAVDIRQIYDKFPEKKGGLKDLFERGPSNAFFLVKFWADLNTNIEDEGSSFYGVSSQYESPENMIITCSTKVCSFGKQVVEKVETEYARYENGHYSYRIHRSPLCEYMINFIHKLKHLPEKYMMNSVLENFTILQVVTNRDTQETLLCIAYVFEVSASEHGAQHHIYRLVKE

[5] = biological target: T2, Transcriptional enhancer factor TEF-4; experiment: Displacement of FAM- labeled YAP1 peptide (60 to 99 residues) from human TEAD2 (217 to 447 residues) expressed in Escherichia coli BL21 (DE3) cells assessed as maximum inhibition at 0.2 to 100 uM incubated for 24 hrs by fluorescence polarization-based competitive binding assay relative to control; details: dose 0.2-100 µM
[6] = tested on: Transcriptional enhancer factor TEF-3 (Homo sapiens), Q15561 [C367S]; experiment: Displacement of FAM- labeled YAP1 peptide (60 to 99 residues) from human TEAD4 (217 to 434 residues) C367S mutant expressed in Escherichia coli BL21 (DE3) cells at 0.2 to 100 uM incubated for 24 hrs by fluorescence polarization-based competitive binding assay; details: dose 0.2-100 µM
Chain of Transcriptional enhancer factor TEF-3 (Homo sapiens), Q15561 [C367S] (Q15561 whole entry C367S, the tested form may be a part): as the sequence (Q15561 whole entry, the tested form may be a part) above, with C367S counted along it

[7] = Inhibition of TEAD in human MDA-MB-468 cells assessed as inhibition of CTGF transcriptional level incubated for 24 hrs by qRT-PCR assay; type: cell-based; details: for pIC50: Homo sapiens, MDA-MB-468, 24 h, read-out: IC50
MDA-MB-468 = experiment: Inhibition of TEAD in human MDA-MB-468 cells assessed as maximal inhibition of CTGF transcriptional level at 0.01 to 100 uM incubated for 24 hrs by qRT-PCR assay relative to control; type: cell-based; details: dose 0.01-100 µM
[8] = biological target: T4, Transcriptional enhancer factor TEF-3; experiment: Inhibition of TEAD4 (unknown origin) transfected in human HEK293 cells co-transfected with renilla plasmid assessed as inhibition of transcriptional activity incubated for 24 hrs by dual Glo-luciferase reporter assay; type: cell-based; details: for pIC50: read-out: IC50
[9] = biological target: T4, Transcriptional enhancer factor TEF-3; experiment: Inhibition of TEAD4 (unknown origin) transfected in human HEK293 cells co-transfected with renilla plasmid assessed as maximum inhibition of transcriptional activity at 0.01 to 100 uM incubated for 24 hrs by dual Glo-luciferase reporter assay relative to control; type: cell-based; details: dose 0.01-100 µM
[10] = biological target: T1, Transcriptional enhancer factor TEF-1; experiment: Inhibition of TEAD1 (unknown origin) transfected in human HEK293 cells co-transfected with renilla plasmid assessed as inhibition of transcriptional activity incubated for 24 hrs by dual Glo-luciferase reporter assay; type: cell-based
[11] = biological target: T2, Transcriptional enhancer factor TEF-4; experiment: Inhibition of TEAD2 (unknown origin) transfected in human HEK293 cells co-transfected with renilla plasmid assessed as inhibition of transcriptional activity incubated for 24 hrs by dual Glo-luciferase reporter assay; type: cell-based
[12] = biological target: T3, Transcriptional enhancer factor TEF-5; experiment: Inhibition of TEAD3 (unknown origin) transfected in human HEK293 cells co-transfected with renilla plasmid assessed as inhibition of transcriptional activity incubated for 24 hrs by dual Glo-luciferase reporter assay; type: cell-based
[13] = biological target: YAP1-TEAD4 (Homo sapiens) (UniProt P46937+Q15561); experiment: Inhibition of NanoLuc-tagged TEAD4 (unknown origin)-Halo-Tagged YAP1 (unknown origin) protein-protein interaction transfected in HEK293 cells using furimazine as substrate at 10 uM incubated for 2 to 24 hrs by NanoBRET binding assay; type: cell-based; details: time 2-24 hrs
[14] = biological target: T1, Transcriptional enhancer factor TEF-1; experiment: Inhibition of TEAD1 (unknown origin) transfected in human HEK293 cells co-transfected with renilla plasmid assessed as maximum inhibition of transcriptional activity at 0.1 to 10 uM incubated for 24 hrs by dual Glo-luciferase reporter assay relative to control; type: cell-based; details: dose 0.1-10 µM
[15] = biological target: T2, Transcriptional enhancer factor TEF-4; experiment: Inhibition of TEAD2 (unknown origin) transfected in human HEK293 cells co-transfected with renilla plasmid assessed as maximum inhibition of transcriptional activity at 0.1 to 10 uM incubated for 24 hrs by dual Glo-luciferase reporter assay relative to control; type: cell-based; details: dose 0.1-10 µM
[16] = biological target: T4, Transcriptional enhancer factor TEF-3; experiment: Inhibition of TEAD4 (unknown origin) transfected in human HEK293 cells co-transfected with renilla plasmid assessed as maximum inhibition of transcriptional activity at 0.1 to 10 uM incubated for 24 hrs by dual Glo-luciferase reporter assay relative to control; type: cell-based; details: dose 0.1-10 µM
[17] = biological target: T1, Transcriptional enhancer factor TEF-1; experiment: Inhibition of TEAD1 (unknown origin) transfected in human HEK293 cells co-transfected with renilla plasmid assessed as maximum inhibition of transcriptional activity at 10 uM incubated for 24 hrs by dual Glo-luciferase reporter assay relative to control; type: cell-based
[18] = biological target: T2, Transcriptional enhancer factor TEF-4; experiment: Inhibition of TEAD2 (unknown origin) transfected in human HEK293 cells co-transfected with renilla plasmid assessed as maximum inhibition of transcriptional activity at 10 uM incubated for 24 hrs by dual Glo-luciferase reporter assay relative to control; type: cell-based

pIC50 [1]	pIC50 [2]	IC50 [3]	pIC50 [4]	Imax [5]	inhibition [6]	pIC50 [7]	pIC50 [8]	Imax [9]	SMILES	Imax (MDA-MB-468)	further results
5.89	5.68	Not Active	5.27	40%	inactive	5.26	4.98	98.7%	N#CN1Cc2cccc(Nc3ccccc3C(F)(F)F)c2C1	36.7%	–
5.80	4.56	Not Active	4.29	45%	inactive	5.96	6.40	87.3%	N#CN1CC2CCCC(Nc3cccc(C(F)(F)F)c3)C2C1 (configuration not stated)	28.6%	pIC50 [10]: 5.80; pIC50 [11]: 5.66; pIC50 [12]: 5.92; inhibition [13]: inactive; Imax [14]: 40%; Imax [15]: 28.2%; Imax [16]: 41.3%
6.70	5.62	Not Active	6.22	37%	inactive	6.52	6.15	35.6%	N#CN1Cc2ccc(F)c(Nc3cccc(C(F)(F)F)c3)c2C1	50.3%	inhibition [17]: Active; inhibition [18]: Active
5.82	4.79	Not Active	4.70	39%	–	–	–	–	N#CN1CC2CCCC(Nc3ccc(C(F)(F)F)cc3)C2C1 (configuration not stated)	inactive	IC50 ([7]; mda-mb-468): Not Active; IC50 ([8]; hek293): Not Active
